# Reference: ChEMBL document CHEMBL3763024, “Development of 3-(4-aminosulphonyl)-phenyl-2-mercapto-3H-quinazolin-4-ones as inhibitors of carbonic anhydrase isoforms involved in tumorigenesis and glaucoma” (Bioorg Med Chem, 2016)
# Biological target: Carbonic anhydrase 1 (Homo sapiens, UniProt P00915)
# Assay: Inhibition of human recombinant carbonic anhydrase 1 preincubated for 15 mins by stopped flow CO2 hydration assay
# Chain of Carbonic anhydrase 1 (P00915 whole entry): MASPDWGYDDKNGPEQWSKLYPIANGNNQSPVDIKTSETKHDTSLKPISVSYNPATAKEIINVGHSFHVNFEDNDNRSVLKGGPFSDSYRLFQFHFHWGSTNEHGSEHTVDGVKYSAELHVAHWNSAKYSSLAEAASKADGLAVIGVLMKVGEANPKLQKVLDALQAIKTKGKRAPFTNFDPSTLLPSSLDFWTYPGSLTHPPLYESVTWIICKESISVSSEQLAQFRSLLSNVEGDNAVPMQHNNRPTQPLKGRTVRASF
row,Ki [nM],SMILES
1,> 10000,COc1ccc2c(=O)n(-c3ccc(S(N)(=O)=O)cc3)c(S)nc2c1

# Biological target: Carbonic anhydrase 9 (Homo sapiens, UniProt Q16790)
# Assay: Inhibition of human recombinant carbonic anhydrase 9 preincubated for 15 mins by stopped flow CO2 hydration assay
row,SMILES,Ki [nM]
1,NS(=O)(=O)c1ccc(-n2c(S)nc3c(Cl)cccc3c2=O)cc1,43.9
2,NS(=O)(=O)c1ccc(-n2c(S)nc3c(Br)cccc3c2=O)cc1,4.7
3,COc1cc2c(=O)n(-c3ccc(S(N)(=O)=O)cc3)c(S)nc2c(OC)c1OC,50.4
4,NS(=O)(=O)c1ccc(-n2c(S)nc3ccc(Cl)cc3c2=O)cc1,34.9
5,COc1ccc2nc(S)n(-c3ccc(S(N)(=O)=O)cc3)c(=O)c2c1,3.7
6,COc1cccc2c(=O)n(-c3ccc(S(N)(=O)=O)cc3)c(S)nc12,5.1
7,Cc1cc(C)c2nc(S)n(-c3ccc(S(N)(=O)=O)cc3)c(=O)c2c1,17.5

# More lines, now with the values ahead:
row,Ki [nM],SMILES
1,45.4,NS(=O)(=O)c1ccc(-n2c(S)nc3c(F)cccc3c2=O)cc1
2,16.2,Cc1ccc2nc(S)n(-c3ccc(S(N)(=O)=O)cc3)c(=O)c2c1
3,35.6,Cc1cccc2c(=O)n(-c3ccc(S(N)(=O)=O)cc3)c(S)nc12
4,163,NS(=O)(=O)c1ccc(-n2c(S)nc3cc(Br)ccc3c2=O)cc1
5,275,NS(=O)(=O)c1ccc(-n2c(S)nc3ccc(Br)cc3c2=O)cc1
6,49.3,COc1ccc2c(=O)n(-c3ccc(S(N)(=O)=O)cc3)c(S)nc2c1OC
7,14.5,NS(=O)(=O)c1ccc(-n2c(S)nc3c(I)cccc3c2=O)cc1
8,157,NS(=O)(=O)c1ccc(-n2c(S)nc3cc(Cl)ccc3c2=O)cc1
